Test results reported in article PMC9821843, “Powerful Potential of Polyfluoroalkyl-Containing 4-Arylhydrazinylidenepyrazol-3-ones for Pharmaceuticals” (Molecules, 2022).
Converted amounts (≈) assume the structure as drawn. Read-outs that look alike come from different tables or passages of the source.

Assays:
[1] = ABTS radical cation scavenging activity assay; design: key to ABTS•+-scavenging activity, TEAC (trolox equivalent antioxidant capacity): TEAC = ratio of compound slope to Trolox slope vs ABTS absorbance; details: mean ± SEM; for ABTS•+-scavenging activity, TEAC (trolox equivalent antioxidant capacity): n.a. = inactive
Experimental: Radical scavenging activity of the compounds was evaluated by the ABTS radical cation (ABTS^•+) scavenging assay by the ability of the compounds to decolorize the ABTS^•+ solution [112] with some modifications. Trolox was used as a reference standard. Edaravone was used as the comparison compound. All tested compounds and standards were dissolved in DMSO. ABTS (2,2′-azinobis-(3-ethylbenzothiazoline-6-sulfonic acid)) was purchased from Tokyo Chemical Industry Co. Ltd. (Tokyo, Japan). Potassium persulfate (di-potassium peroxdisulfate), Trolox® (6-hydroxy-2,5,7,8-tetramethychroman-2-carboxylic acid), ascorbic acid, DMSO and HPLC-grade ethanol were obtained from Sigma-Aldrich Chemical Co. Aqueous solutions were prepared using deionized water.
The solution of ABTS^•+ was produced by mixing 7 mM ABTS aqueous solution with 2.45 mM potassium persulfate aqueous solution in equal quantities and allowing them to react for 12–16 h at room temperature in the dark. Radical scavenging capacity of the compounds was analyzed by mixing 10 μL of compound with 240 μL of ABTS^•+ working solution in ethanol (100 μM final concentration), and after 1 h of incubation at 30 °C the decrease in absorbance was measured spectrophotometrically at 734 nm using a Bio-Rad xMark microplate UV/VIS spectrophotometer (Bio-Rad, Hercules, CA, USA). The compounds were tested in the concentration range of 5 × 10^–7–4 × 10^–4 M. Ethanol blanks were run in each assay. Values were obtained from five replicates of each sample and three independent experiments.
Antioxidant activity was calculated as Trolox equivalent antioxidant capacity (TEAC values), consisting of the ratio between the slopes obtained from the linear correlation for concentrations of the tested compounds and Trolox with absorbance of ABTS radical. For the test compounds, which reduce ABTS^•+ absorbance by more than 60% at 100 µM, we also determined IC50 values as 50% reduction of the ABTS radical. The calculations were carried out using Origin 6.1 for Windows. Results were presented as mean ± SEM, calculated using GraphPad Prism version 6.05 for Windows, GraphPad Software.

[2] = molecular target: T1, human erythrocyte acetylcholinesterase (AChE, EC 3.1.1.7) (Homo sapiens, UniProt P22303); assay: Inhibition of human erythrocyte acetylcholinesterase (Ellman assay); type: biochemical; details: read-out: Inhibition % at 20 µM, Human AChE
T1 construct: human erythrocyte acetylcholinesterase (AChE, EC 3.1.1.7); purchased Sigma-Aldrich (Saint Louis, MO, USA); host or cells: human erythrocytes
T1 sequence (P22303 32-617 isoform P22303-2 limits assumed): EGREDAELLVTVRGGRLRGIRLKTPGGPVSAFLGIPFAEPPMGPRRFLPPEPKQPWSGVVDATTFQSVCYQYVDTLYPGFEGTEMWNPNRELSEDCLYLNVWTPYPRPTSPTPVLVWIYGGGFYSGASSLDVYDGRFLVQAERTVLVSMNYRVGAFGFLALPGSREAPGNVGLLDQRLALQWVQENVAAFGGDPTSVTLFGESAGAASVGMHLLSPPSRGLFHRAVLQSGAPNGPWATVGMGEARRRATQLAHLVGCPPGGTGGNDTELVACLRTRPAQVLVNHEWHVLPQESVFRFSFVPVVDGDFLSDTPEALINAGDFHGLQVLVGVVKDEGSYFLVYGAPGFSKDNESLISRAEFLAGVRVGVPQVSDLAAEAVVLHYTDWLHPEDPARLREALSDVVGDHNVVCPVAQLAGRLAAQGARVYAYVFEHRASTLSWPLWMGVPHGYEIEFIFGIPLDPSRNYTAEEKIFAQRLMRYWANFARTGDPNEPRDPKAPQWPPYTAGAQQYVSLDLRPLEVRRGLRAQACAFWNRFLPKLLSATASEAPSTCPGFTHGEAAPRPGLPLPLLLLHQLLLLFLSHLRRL
Source text: (§1) The following enzymes were purchased from Sigma-Aldrich (Saint Louis, MO, USA): porcine liver carboxylesterase (CES, EC 3.1.1.1), human erythrocyte acetylcholinesterase (AChE, EC 3.1.1.7) and equine serum butyrylcholinesterase (BChE, EC 3.1.1.8). Substrates for CES, AChE and BChE were 4-nitrophenyl acetate (4-NPA), acetylthiocholine iodide (ATCh) and butyrylthiocholine iodide (BTCh), respectively, and the colorimetric reagent for the AChE and BChE assays was 5,5’-dithio-bis-(2-nitrobenzoic acid) (DTNB) (Sigma-Aldrich). All the kinetic experiments were performed under standard conditions, according to the protocol of IPAC RAS for a reversible inhibitors study.
Reagent blanks consisted of reaction mixtures without enzyme to assess non-enzymatic hydrolysis of substrates.
Test compounds were dissolved in DMSO. Reaction mixtures contained a final DMSO concentration of 2% (v/v). […] Measurements were performed in a Bio-Rad Benchmark Plus microplate reader. Each experiment was performed in triplicate. Plots, linear regressions and values of IC50, were determined using Origin 6.1 for Windows, OriginLab (Northampton, MA, USA).

[3] = Oxygen radical absorbance capacity (ORAC-FL) assay; details: n.a. = inactive; i.t.s. = interferes with test system
Source text: We evaluated the primary antioxidant activity of synthesized 4-AHPs 5–9 in comparison with their non-fluorinated analogues 9a,b using three standard tests: ABTS, FRAP (ferric reducing antioxidant power) and ORAC (oxygen radical absorbance capacity) assays. The ABTS assay evaluates the binding of a model ABTS radical cation (ABTS^•+), which is realized by the mechanism of single electron transfer (SET) and/or hydrogen atom transfer (HAT). The FRAP assay measures the ability of compounds to reduce the ferric 2,4,6-tripyridyl-s-triazine complex [Fe(TPTZ)2]^3+ to [Fe(TPTZ)2]^2+, which occurs exclusively by the SET mechanism. The ORAC-FL assay measures the oxidative degradation of the fluorescent molecule (FL – fluorescein) after being mixed with a free peroxyl radical generator such as 2,2′-azobis-(2-methylpropionamidine) dihydrochloride (AAPH) in the presence of antioxidant (tested compound). The ORAC-FL test describes the antioxidants’ ability to yield the hydrogen atom and, consequently, it is a HAT-based assay. Trolox was used in all tests as a reference antioxidant: the antioxidant activity of the test compounds was referred to the activity of Trolox. The well-known antioxidant Edaravone was also used for comparison.
The ORAC assay was performed according to the known method, with minor variations and described by us recently.

[4] = system: Neisseria gonorrhoeae ATCC 49226/NCTC 12700; assay: Antibacterial activity against Neisseria gonorrhoeae; type: cell-based; details: read-out: MIC against Neisseria gonorrhoeae
Experimental: Antibacterial activity testing was done on the growth medium Difco GC medium base (Becton Dickinson, Franklin Lakes, NJ, USA) supplemented with 1% IsoVitaleX. Dilutions of chemical compounds were carried out in the range of 250–0.12 μg/mL in 24 well sterile plates (Sarstedt, Germany). Daily cultures of control bacterial strains were identified on a VITEK MS analyzer (BioMérieux, Marcy-l’Étoile, France) by MALDI-TOF mass spectrometry. The inoculation dose of N. gonorrhoeae inoculum was 10^5 CFU/mL.

Sprague-Dawley (SD) rats = assay: Hot plate test (analgesic activity); type: in vivo; details: ip, dose 15 mg/kg; for change in vivo at 15 mg/kg: Rattus norvegicus, hot plate test, rats, n.a. = inactive (p > 0.05)
Experimental: The hot plate test was conducted according to established guidelines on Sprague-Dawley (SD) rats (3 male and 3 female rodents per group). The compounds were intraperitoneally administered in the form of suspensions in 1% starch mucilage. Negative control group animals received vehicle only (1% starch mucilage). Diclofenac sodium (Hemofarm, Vršac, Serbia, 10 mg/kg in 1% starch mucilage solution) or metamizole sodium (PAO Biosynthesis, Sun Pharma, Penza, Russia, 15 mg/kg in 1% starch mucilage solution) were used as reference drugs. One and two hours after the injection, rats were placed on an electrically heated to 50 °C plate (Hot plate 60,200 series, TSE-systems, Bad Homburg, Germany) in a Plexiglas cylindrical restrainer (19 cm diameter × 30 cm). The nociceptive response time was measured by observing the appearance of rats’ movements (e.g., jumping, hind paw licking or shaking). Maximal cutoff time was set as 30 s regardless of the response in order to preclude skin damage.
Differences between the values of the latency period for the treated (experimental) and control groups of animals were considered significant at p ≤ 0.05.

[5] = Acute toxicity evaluation in mice (ip); details: CD-1, mouse, in vivo, 300 mg/kg
Experimental: The toxicity evaluation was performed on CD-1 mice. […] The tested compounds in 1% starch mucilage were injected intraperitoneally into three mice. Then, animals were observed during 14 days, the number of deaths was counted and % of viability calculated.

[6] = system: Candida albicans RCPF Y 401/NCTC 885/653; assay: Antifungal susceptibility testing, C. albicans; details: NCTC885, read-out: MIC for fungi strains inhibition, C. albicans
Source text: (§2) The solvent was DMSO. […] In each test, a growth control and a sterility control were used.

[7] = system: Microsporum canis RCPF F 1643/1585; assay: Antifungal susceptibility testing, M. canis; details: Microsporum canis, RCPFF1643/1585, read-out: MIC for fungi strains inhibition, M. canis
Source text: as §2

[8] = system: Trichophyton rubrum RCPF F 1408; assay: Antifungal susceptibility testing, T. rubrum; details: Trichophyton rubrum, RCPFF1408, read-out: MIC for fungi strains inhibition, T. rubrum
Source text: as §2

[9] = molecular target: T2, equine serum butyrylcholinesterase (BChE, EC 3.1.1.8) (Equus caballus, UniProt P81908); assay: Inhibition of equine serum butyrylcholinesterase (Ellman assay); type: biochemical; details: read-out: Inhibition % at 20 µM, Equine BChE
T2 construct: equine serum butyrylcholinesterase (BChE, EC 3.1.1.8); purchased Sigma-Aldrich (Saint Louis, MO, USA); host or cells: equine serum
T2 sequence (P81908 whole entry): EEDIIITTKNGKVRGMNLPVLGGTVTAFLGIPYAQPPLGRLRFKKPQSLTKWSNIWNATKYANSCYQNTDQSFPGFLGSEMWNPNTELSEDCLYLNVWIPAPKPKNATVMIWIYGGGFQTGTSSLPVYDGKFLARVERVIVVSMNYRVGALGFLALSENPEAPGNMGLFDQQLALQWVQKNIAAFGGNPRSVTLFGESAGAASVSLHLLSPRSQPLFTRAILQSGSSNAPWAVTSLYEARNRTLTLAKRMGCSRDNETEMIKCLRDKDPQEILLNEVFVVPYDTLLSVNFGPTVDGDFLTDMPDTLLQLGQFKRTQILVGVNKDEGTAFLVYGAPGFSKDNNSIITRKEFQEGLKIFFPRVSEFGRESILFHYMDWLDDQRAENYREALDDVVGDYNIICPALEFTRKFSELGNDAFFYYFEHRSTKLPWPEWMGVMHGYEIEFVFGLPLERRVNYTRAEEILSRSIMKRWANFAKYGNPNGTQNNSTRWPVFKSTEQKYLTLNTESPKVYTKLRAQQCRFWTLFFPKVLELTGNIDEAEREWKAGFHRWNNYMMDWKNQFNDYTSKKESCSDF
Source text: as §1
Final concentrations of reactants were 0.33 mM DTNB, 0.02 unit/mL of AChE or BChE and 1 mM of substrate (ATCh or BTCh, respectively). Reagent blanks consisted of reaction mixtures without enzyme to assess non-enzymatic hydrolysis of substrates.
Test compounds were dissolved in DMSO. Reaction mixtures contained a final DMSO concentration of 2% (v/v). […] Substrate was then added and residual enzyme activity relative to an inhibitor-free control was measured using a Bio-Rad Benchmark Plus microplate reader (Marnes-la-Coquette, France).
Measurements were performed in a Bio-Rad Benchmark Plus microplate reader. Each experiment was performed in triplicate. Plots, linear regressions and values of IC50, were determined using Origin 6.1 for Windows, OriginLab (Northampton, MA, USA).

[10] = system: Epidermophyton floccosum RCPF F 1659/17; assay: Antifungal susceptibility testing, E. floccosum; details: Epidermophyton floccosum, RCPFF1659/17, read-out: MIC for fungi strains inhibition, E. floccosum
Source text: as §2

[11] = 2 h, read-out: Latent Period Prolongation, % 2 h
[12] = 1 h, read-out: Latent Period Prolongation, % 1 h

| SMILES | IC50 [1] | ABTS•+-scavenging activity, TEAC (trolox equivalent antioxidant capacity) [1] | inhibition at 20 µM [2] | ORAC-FL (TE, antioxidant activity in Trolox equivalents) [3] | MIC [4] | change in vivo at 15 mg/kg (Sprague-Dawley (SD) rats; [11]) | survival at 14 days [5] | MIC [6] | MIC [7] | MIC [8] | inhibition at 20 µM [9] | MIC [10] | change in vivo at 15 mg/kg (Sprague-Dawley (SD) rats; [12]) | analgesic activity in the hot plate test (Sprague-Dawley (SD) rats; SD rats, 1 and 2 h) |
| --- | --- | --- | --- | --- | --- | --- | --- | --- | --- | --- | --- | --- | --- | --- |
| COc1ccc(N/N=C2\C(=O)N(c3ccccc3)N=C2C(F)(F)F)cc1 [5g, (4Z)-4-(2-(4-Methoxyphenyl)hydrazinylidene)-2-phenyl-5-(trifluoromethyl)-2,4-dihydro-3H-pyrazol-3-one] | 55.6 ± 2.4 µM | 0.35 ± 0.03 | 12.3 ± 2.3% | 2.20 ± 0.36 | 0.9 µg/mL (≈ 2.48 µM) | 76.9% | 100% | – | – | – | – | – | – | – |
| O=C1/C(=N\Nc2ccc(F)cc2)C(C(F)(F)F)=NN1c1ccccc1 [5h, (4Z)-4-[2-(4-Fluorophenyl)hydrazinylidene]-2-phenyl-5-(trifluoromethyl)-2,4-dihydro-3H-pyrazol-3-one] | – | 0.05 ± 0.004 | 7 ± 1.2% | – | 125 µg/mL (≈ 357 µM) | 67% | 100% | > 200 µg/mL | > 200 µg/mL | > 200 µg/mL | 3.2 ± 0.6% | > 200 µg/mL | 66% | – |
| CCOC(=O)c1ccc(N/N=C2\C(=O)N(c3ccccc3)N=C2C(F)(F)F)cc1 [5l, (4Z)-4-[2-(4-Ethoxycarbonyl)hydrazinylidene]-2-phenyl-5-(trifluoromethyl)-2,4-dihydro-3H-pyrazol-3-one] | – | – | 16.7 ± 1.5% | i.t.s. | 31.2 µg/mL (≈ 77.2 µM) | 107% | 100% | – | – | – | 3.2 ± 0.8% | – | 68.1% | – |
| Cc1ccc(N/N=C2\C(=O)N(c3ccc(S(C)(=O)=O)cc3)N=C2C(F)(F)F)cc1 [5q, (4Z)-2-[4-(Methylsulfonyl)phenyl]-4-[2-(4-methylphenyl)hydrazinylidene]-5-(trifluoromethyl)-2,4-dihydro-3H-pyrazol-3-one] | – | 0.02 ± 0.001 | 4.3 ± 0.8% | i.t.s. | > 250 µg/mL | 110% | 100% | – | – | – | – | – | 104% | – |
| O=C1/C(=N\Nc2ccccc2Cl)C(C(F)(F)C(F)(F)F)=NN1c1ccccc1 [6c, (4Z)-4-[2-(2-Chlorophenyl)hydrazinylidene]-5-(pentafluoroethyl)-2-phenyl-2,4-dihydro-3H-pyrazol-3-one] | – | – | 3.3 ± 0.6% | – | > 250 µg/mL | 51% | 100% | > 200 µg/mL | > 200 µg/mL | 200 µg/mL (≈ 480 µM) | 6.5 ± 1% | > 200 µg/mL | 75% | – |
| O=C1/C(=N\Nc2c(Cl)cccc2Cl)C(C(F)(F)C(F)(F)F)=NN1c1ccccc1 [6e, (4Z)-4-[2-(2,6-Dichlorophenyl)hydrazinylidene]-5-(pentafluoroethyl)-2-phenyl-2,4-dihydro-3H-pyrazol-3-one] | – | – | 6 ± 1% | – | 62.5 µg/mL (≈ 139 µM) | – | 100% | > 200 µg/mL | > 200 µg/mL | > 200 µg/mL | 6.2 ± 1.2% | 200 µg/mL (≈ 443 µM) | – | inactive |
| CCOC(=O)c1ccc(N/N=C2\C(=O)N(c3ccccc3)N=C2C(F)(F)C(F)(F)F)cc1 [6g, (4Z)-4-[2-(4-Ethoxycarbonylphenyl)hydrazinylidene]-5-(pentafluoroethyl)-2-phenyl-2,4-dihydro-3H-pyrazol-3-one] | – | – | 6.2 ± 0.9% | – | 15.6 µg/mL (≈ 34.3 µM) | 73% | 100% | > 200 µg/mL | > 200 µg/mL | > 200 µg/mL | 4.2 ± 0.8% | > 200 µg/mL | 67% | – |
